{
  "source": "patent US6512007B1",
  "about": "“Use of galiella lactone” (Bayer Aktiengesellschaft, priority 2000, dated 2003)",
  "key": {"Solubility in solvents": {"assay": "Solubility in solvents", "format": "physicochemical", "from_the_text": "Galiella lactone has the physical and chemical properties described hereinafter. […] It was possible with the aid of the mass spectra (Table 1) to establish firstly the molecular weight of 194 Da and then the molecular formula of C11H14O3."}, "[1]": {"tested_on": "IL-6-induced and Stat3-mediated SEAP synthesis", "assay": "Inhibition of IL-6- and Stat3-mediated SEAP reporter gene expression in HepG2 cells", "format": "cell-based", "conditions": "Homo sapiens; HepG2, induction with IL-6 10 ng/ml, 24 h; read-out: concentration for half-maximal SEAP synthesis inhibition (IC50)", "experimental": "The following bioassay was carried out for fundamental exemplary experiments for detecting the inhibition of IL-6- and Stat3-mediated gene expression:\nThe initial vector used was the vector pTK/SEAP (Biochem. Biophys. Res. Commun., 1996, 226: 214-21) (see FIG. 1) which contains the gene of secreted alkaline phosphatase (SEAP) as reporter gene. This vector was linearized with the restriction enzyme Nhel and then dephosphorylated. The following oligonucleotides\nwhich contain a binding site for Stat3 and Stat1 proteins (cf. Proc. Natl. Acad. Sci. USA, 1995, 92: 3041-5) were phosphorylated, ligated and precipitated with ethanol. […]\nThe HepG2 cells were cultivated in a moist atmosphere with 5% CO2 at 37° C. in 50 ml of DMEM (Gibco BRL, Life Technologies GmbH. Dieselstr, 5, 76344 Eggenstein) with 10% fetal calf serum, and penicillin/streptomycin (100 iu) in 600 ml cell culture bottles. […] The cell count was determined using a counting chamber and was adjusted to 6-8×10^6 cells/ml. […]\nCytotoxic effects of the compounds on the cells were investigated by microscopy after 24 h. Likewise after 24 h. the SEAP activity was determined using the Phospha-Light™ chemoluminescence assay (Perkins-Elmer Applied Biosystems, Langen) and, under the chosen conditions, is directly proportional to the SEAP concentration in the analysed sample. […]"}},
  "data": [
    {"smiles": "C[C@H]1C=C2C(=O)O[C@H]3CC[C@@H](C1)[C@@]23O", "note": "[galiella lactone]", "values": [
      {"measurement": "solubility in nonpolar solvents", "setting": "Solubility in solvents; cyclohexane, n-pentane, n-hexane", "value": "scarcely soluble"},
      {"measurement": "solubility in polar solvents", "setting": "Solubility in solvents; methanol, pyridine, ethyl acetate, acetonitrile, TBME, THF and water", "value": "readily soluble"},
      {"measurement": "IC50", "setting": "[1]", "value": "50 to 100", "unit": "nM"}
    ]}
  ]
}
